In patent publication US20250197372A1 (priority 2020, published 2025) one finds IC50 data, which are given here for 20 molecules.

Common to all, as to format: biochemical
In assay [1] the target is T1, recombinant alpha-glucosidase I (human full-length glucosidase I, Glu 1) (Homo sapiens, UniProt Q13724).
T1 construct: 6-His (C); made in house; host or cells: HEK-293T cells transduced with BacMam virus (virus raised in Sf9)
T1 sequence (Q13724 1-837): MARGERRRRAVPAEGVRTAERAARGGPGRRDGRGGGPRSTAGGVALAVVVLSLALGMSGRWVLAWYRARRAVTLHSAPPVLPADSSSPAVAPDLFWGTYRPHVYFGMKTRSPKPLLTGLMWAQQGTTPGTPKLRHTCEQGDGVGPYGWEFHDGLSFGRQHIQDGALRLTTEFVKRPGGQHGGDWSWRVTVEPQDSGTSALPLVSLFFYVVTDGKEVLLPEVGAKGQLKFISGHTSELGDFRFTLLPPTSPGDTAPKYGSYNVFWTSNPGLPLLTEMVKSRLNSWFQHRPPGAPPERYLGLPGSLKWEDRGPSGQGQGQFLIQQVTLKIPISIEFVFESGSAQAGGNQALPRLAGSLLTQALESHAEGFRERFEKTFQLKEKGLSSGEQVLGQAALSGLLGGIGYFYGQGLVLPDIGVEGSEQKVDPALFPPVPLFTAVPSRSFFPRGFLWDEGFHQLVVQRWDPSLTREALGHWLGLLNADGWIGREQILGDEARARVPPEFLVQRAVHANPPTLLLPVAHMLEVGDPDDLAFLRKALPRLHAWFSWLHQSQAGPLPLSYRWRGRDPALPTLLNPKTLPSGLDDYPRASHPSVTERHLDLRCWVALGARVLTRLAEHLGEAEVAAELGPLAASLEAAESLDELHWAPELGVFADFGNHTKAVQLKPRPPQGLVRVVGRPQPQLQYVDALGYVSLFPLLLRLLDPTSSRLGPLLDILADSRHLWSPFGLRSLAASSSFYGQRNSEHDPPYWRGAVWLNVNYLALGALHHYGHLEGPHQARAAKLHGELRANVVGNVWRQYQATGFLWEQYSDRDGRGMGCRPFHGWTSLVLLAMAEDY
Put plainly: Alpha-glucosidase I assay (Amplex Red glucose detection, synthetic trisaccharide substrate). Conditions: Glucosidase 1; read-out: Glu 1 IC50. Put shortly:
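Compound dilution series incubated 60 min at 37° C with recombinant His-tagged human glucosidase I ([…]), after which trisaccharide substrate analog was added for 90 min at 37° C. Reaction quenched with 1.5M Tris pH 8; D-glucose detected by Amplex Red fluorescence, 560/590 nm. 4-PL curve fit of percent inhibition gave IC50.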

For assay [2], the target named is rat maltase (partially purified alpha-glucosidase from intestinal rat powder). The assay is described as follows: Intestinal alpha-glucosidase assay, maltose substrate (Glucose GO Kit). A digest of the protocol:
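Rat intestinal enzyme prep + test cpd dilutions, 60 min 37 °C; add maltose (maltase) or sucrose (sucrase), 30 min 37 °C; stop 90 °C 5 min. Glucose readout (glucose oxidase kit). IC50 from 4-PL fit of % inhibition vs conc.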

In assay [3] the target is recombinant human GAA (acid alpha-glucosidase) (Homo sapiens, UniProt P10253). The assay is described as follows: Acid alpha-glucosidase (GAA) assay (4-methylumbelliferyl-alpha-D-pyranoside substrate, fluorescence). Put shortly: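 IC50 from 4-PL curve fit of percent inhibition, based on fluorescence (365/440 nm) of released methylumbelliferone relative to uninhibited enzyme. Compound dilutions and human GAA incubated 60 min, 37 °C, before 20 min substrate reaction at 37 °C, quenched at pH 10.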

The structures appear in SMILES notation.

A word on the IC50: it is the concentration at which inhibition is half-maximal.

For the molecule `Cc1cc(-c2ncccn2)ccc1NCCCCCCN1C[C@H](O)[C@@H](O)[C@H](O)[C@H]1CO` [Compound 1233, (2R,3R,4R,5S)-2-(hydroxymethyl)-1-(6-{[2-methyl-4-(pyrimidin-2-yl)phenyl]amino}hexyl)piperidine-3,4,5-triol], the results for the IC50 in assay [1], in assay [2] and in assay [3] were 0.123 µM, 0.032 µM and 1.03 µM, respectively.

With `[N-]=[N+]=Nc1ccc(NCCN(CCC(N)=O)CCN2C[C@H](O)[C@@H](O)[C@H](O)[C@H]2CO)c([N+](=O)[O-])c1` [Compound 1235], the concentration for half-maximal inhibition (IC50) in assay [1] stood at 8.11 µM; in assay [2] it was 7.16 µM; in assay [3], 37.8 µM.

Take `CN(C)Cc1ccc(NCCCCCCN2C[C@H](O)[C@@H](O)[C@H](O)[C@H]2CO)c(F)c1` [Compound 1236, (2R,3R,4R,5S)-1-[6-({4-[(dimethylamino)methyl]-2-fluorophenyl}amino)hexyl]-2-(hydroxymethyl)piperidine-3,4,5-triol]: the IC50 in assay [1] is 0.296 µM; in assay [2], 0.036 µM; in assay [3], 0.556 µM.

On to `Nc1ccc(NCCc2ccccc2CCN2C[C@H](O)[C@@H](O)[C@H](O)[C@H]2CO)c([N+](=O)[O-])c1Cl` [Compound 1239, (2R,3R,4R,5S)-1-[2-(2-{2-[(4-amino-3-chloro-2-nitrophenyl)amino]ethyl}phenyl)ethyl]-2-(hydroxymethyl)piperidine-3,4,5-triol], for which the half-inhibitory concentration (IC50) in assay [1] was 1.44 µM; in assay [2] it was less than 0.001 µM; in assay [3] it was 1.24 µM.

Regarding `[N-]=[N+]=Nc1ccc(NCCc2cccc(CCN3C[C@H](O)[C@@H](O)[C@H](O)[C@H]3CO)c2)c([N+](=O)[O-])c1` [Compound 1240, (2R,3R,4R,5S)-1-[2-(3-{2-[(4-azido-2-nitrophenyl)amino]ethyl}phenyl)ethyl]-2-(hydroxymethyl)piperidine-3,4,5-triol], the values for the IC50 in assay [1], in assay [2] and in assay [3] were 0.283 µM, 0.701 µM and 12.8 µM, respectively.

Regarding `CN(C)Cc1ccc(NCCCCCCN2C[C@H](O)[C@@H](O)[C@H](O)[C@H]2CO)c(C(=O)O)c1` [Compound 1245, 5-[(dimethylamino)methyl]-2-({6-[(2R,3R,4R,5S)-3,4,5-trihydroxy-2-(hydroxymethyl)piperidin-1-yl]hexyl}amino)benzoic acid], the IC50 in assay [1] came out at 0.292 µM; in assay [2], 0.032 µM; in assay [3], 0.392 µM.

Consider `Cc1nc(=O)c2cc(-c3ncccn3)ccc2n1CCCCCCN1C[C@H](O)[C@@H](O)[C@H](O)[C@H]1CO` [Compound 1246, 2-methyl-6-(pyrimidin-2-yl)-1-{6-[(2R,3R,4R,5S)-3,4,5-trihydroxy-2-(hydroxymethyl)piperidin-1-yl]hexyl}-1,4-dihydroquinazolin-4-one], for which the IC50 was 0.112 µM in assay [1], greater than 100 µM in assay [2] and 0.046 µM in assay [3].

As to `CS(C)=NS(=O)(=O)c1cc(-c2ncccn2)ccc1NCCCCCCN1C[C@H](O)[C@@H](O)[C@H](O)[C@H]1CO` [Compound 1247, N-(dimethyl-2-sulfanylidene)-5-(pyrimidin-2-yl)-2-({6-[(2R,3R,4R,5S)-3,4,5-trihydroxy-2-(hydroxymethyl)piperidin-1-yl]hexyl}amino)benzene-1-sulfonamide], the IC50 was 0.493 µM in assay [1], 0.018 µM in assay [2] and 0.053 µM in assay [3].

Take `[N-]=[N+]=Nc1ccc(NCCc2ccccc2CCN2C[C@H](O)[C@@H](O)[C@H](O)[C@H]2CO)c([N+](=O)[O-])c1` [Compound 1249]: the results for the IC50 in assay [1], in assay [2] and in assay [3] were 2.45 µM, 3.49 µM and 1.92 µM, respectively.

Take `N#Cc1ccc(F)cc1NCCCCCCN1C[C@H](O)[C@@H](O)[C@H](O)[C@H]1CO` [Compound 1251, 4-fluoro-2-({6-[(2R,3R,4R,5S)-3,4,5-trihydroxy-2-(hydroxymethyl)piperidin-1-yl]hexyl}amino)benzonitrile]: the IC50 in assay [1] stood at 0.226 µM; in assay [2] it was 0.004 µM; in assay [3], 0.041 µM.

Consider `[N-]=[N+]=Nc1ccc(N2CC(OCCN3C[C@H](O)[C@@H](O)[C@H](O)[C@H]3CO)C2)c([N+](=O)[O-])c1` [Compound 1252, (2R,3R,4R,5S)-1-(2-{[1-(4-azido-2-nitrophenyl)azetidin-3-yl]oxy}ethyl)-2-(hydroxymethyl)piperidine-3,4,5-triol], for which the results for the IC50 in assay [1], in assay [2] and in assay [3] were 1.35 µM, 0.037 µM and 0.141 µM, respectively.

For the molecule `Nc1ccc(NCCn2cc(CCN3C[C@H](O)[C@@H](O)[C@H](O)[C@H]3CO)nn2)c([N+](=O)[O-])c1Cl` [Compound 1253, (2R,3R,4R,5S)-1-[2-(1-{2-[(4-amino-3-chloro-2-nitrophenyl)amino]ethyl}-1H-1,2,3-triazol-4-yl)ethyl]-2-(hydroxymethyl)piperidine-3,4,5-triol], the IC50 in assay [1] came to 1.75 µM; in assay [2], 0.777 µM; in assay [3], 0.664 µM.

As to `[N-]=[N+]=Nc1ccc(N2CCN(CCN3C[C@H](O)[C@@H](O)[C@H](O)[C@H]3CO)CC2)c([N+](=O)[O-])c1` [Compound 1254, (2R,3R,4R,5S)-1-{2-[4-(4-azido-2-nitrophenyl)piperazin-1-yl]ethyl}-2-(hydroxymethyl)piperidine-3,4,5-triol], the concentration for half-maximal inhibition (IC50) in assay [1] is 6.77 µM; in assay [2], 1.21 µM; in assay [3], greater than 100 µM.

For `[N-]=[N+]=Nc1ccc(NCCOCCN2C[C@H](O)[C@@H](O)[C@H](O)[C@H]2CO)c([N+](=O)[O-])c1` [Compound 1255, (2R,3R,4R,5S)-1-(2-{2-[(4-azido-2-nitrophenyl)amino]ethoxy}ethyl)-2-(hydroxymethyl)piperidine-3,4,5-triol], the IC50 is 2.01 µM in assay [1], 0.033 µM in assay [2] and 0.228 µM in assay [3].

Regarding `N#Cc1cc(-c2ncccn2)ccc1NCCCCCCN1C[C@H](O)[C@@H](O)[C@H](O)[C@H]1CO` [Compound 1256, 5-(pyrimidin-2-yl)-2-({6-[(2R,3R,4R,5S)-3,4,5-trihydroxy-2-(hydroxymethyl)piperidin-1-yl]hexyl}amino)benzonitrile], the IC50 is 0.09 µM in assay [1], 0.01 µM in assay [2] and 0.033 µM in assay [3].

Take `CN(C)Cc1ccc(NCCCCCCN2C[C@H](O)[C@@H](O)[C@H](O)[C@H]2CO)c(C#N)c1` [Compound 1257, 5-[(dimethylamino)methyl]-2-({6-[(2R,3R,4R,5S)-3,4,5-trihydroxy-2-(hydroxymethyl)piperidin-1-yl]hexyl}amino)benzonitrile]: the IC50 was found to be 0.115 µM in assay [1], 0.008 µM in assay [2] and 0.073 µM in assay [3].

Turning to `OC[C@@H]1[C@@H](O)[C@H](O)[C@@H](O)CN1CCCCCCNc1ccc(-c2ncccn2)cc1C(F)(F)F` [Compound 1258, (2R,3R,4R,5S)-2-(hydroxymethyl)-1-(6-{[4-(pyrimidin-2-yl)-2-(trifluoromethyl)phenyl]amino}hexyl)piperidine-3,4,5-triol], the figures for the IC50 in assay [1], in assay [2] and in assay [3] were 0.032 µM, 0.019 µM and 0.032 µM, respectively.

On to `CN(C)Cc1ccc(NCCCCCCN2C[C@H](O)[C@@H](O)[C@H](O)[C@H]2CO)c(C(F)(F)F)c1` [Compound 1259, (2R,3R,4R,5S)-1-[6-({4-[(dimethylamino)methyl]-2-(trifluoromethyl)phenyl}amino)hexyl]-2-(hydroxymethyl)piperidine-3,4,5-triol], for which the concentration for half-maximal inhibition (IC50) in assay [1] turned out to be 0.33 µM; in assay [2], 0.02 µM; in assay [3], 0.238 µM.

Regarding `NS(=O)(=O)c1cc(-c2ncccn2)ccc1NCCCCCCN1C[C@H](O)[C@@H](O)[C@H](O)[C@H]1CO` [Compound 1265, 5-(pyrimidin-2-yl)-2-({6-[(2R,3R,4R,5S)-3,4,5-trihydroxy-2-(hydroxymethyl)piperidin-1-yl]hexyl}amino)benzene-1-sulfonamide], the half-maximal inhibitory concentration (IC50) was determined as 0.282 µM in assay [1], 0.005 µM in assay [2] and 0.035 µM in assay [3].

Regarding `NC(=O)c1cc(-c2ncccn2)ccc1NCCCCCCN1C[C@H](O)[C@@H](O)[C@H](O)[C@H]1CO` [Compound 1266, 5-(pyrimidin-2-yl)-2-({6-[(2R,3R,4R,5S)-3,4,5-trihydroxy-2-(hydroxymethyl)piperidin-1-yl]hexyl}amino)benzamide], the figures for the IC50 in assay [1], in assay [2] and in assay [3] were 0.18 µM, 0.002 µM and 0.103 µM, respectively.
